Test results as given in patent US20060135569A1, “Use of benzisoselenazolone compounds against ischemic myocardial damage” (priority 2002, published 2006).
Marks after values point to notes of the source that are not given here.

How the values were obtained:
Na^+/Ca^2+ exchanger = target: T1, Na^+/Ca^2+ exchanger (Cavia porcellus, UniProt P48766); assay: Na^+/Ca^2+ exchange current (INa—Ca), whole-cell patch clamp, intracellular Na^+ overload cell model; assay type: cell-based, guinea pig
T1 construct: endogenous in cells; host or cells: freshly isolated guinea pig ventricular myocytes
Method in brief: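 Whole-cell patch clamp on guinea pig ventricular myocytes, Na⁺-loaded via pipette dialysis; holding −40 mV, step to +60 mV, ramp down at 80 mV·s⁻¹ to −100 mV, 0.05 Hz. K⁺, L-type Ca²⁺ and Na⁺/K⁺-ATPase blocked; INa–Ca taken as 5 mmol·L⁻¹ Ni²⁺-sensitive current.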

[1] = system: arrhythmia caused by ischemia/reperfusion insults in anaesthetic rats; assay: Ischemia/reperfusion arrhythmia in anaesthetic rats, intravenous injection; assay type: in vivo, rat; conditions: for incidence and duration of VT, VF, VE / ventricular arrhythmic / latency of ventricular arrhythmic: 3 mg/Kg intravenous (femoral vein), rats; for Occurrence time / VE Duration time / VE Incidence (%) / VF Duration time / VF Incidence (%) / VT Duration time / VT Incidence (%): intravenously injected per table title
From the text: (1) Protective Effects of the Tested Compounds on Myocardial Insults in Rats after Intravenously Injection
Arrhythmic potency induced by myocardial insults was used to assess the potential protective effect of the compounds.

TA97; TA98; TA100; TA102 = assay: Ames (mutagenesis) test, overall result in 4 strains; assay type: cell-based; conditions: 0.5, 5, 50 and 500 μg/dish
Method: (§1) To assess the mutagenic effects of 5 compounds (IMM-004; IMM-065; IMM-127; IMM-128; IMM-313), the Ames test was performed in 4 strains (TA97; TA98; TA100; TA102). The experiment was conducted with compounds at 4 concentration levels (0.5, 5, 50 and 500 μg/dish). […]

TA98 = assay: Ames test, strain TA98; assay type: cell-based
Method: as §1

[2] = Example 1 table, myocardial cell
[3] = screening of 22 candidate compounds

Compound	Inhibitory rate of inward INa—Ca (%) (Na^+/Ca^2+ exchanger; [2])	Inhibitory rate of outward INa—Ca (%) (Na^+/Ca^2+ exchanger; [2])	Inhibitory rate of inward INa—Ca (%) (Na^+/Ca^2+ exchanger; [3])	Inhibitory rate of outward INa—Ca (%) (Na^+/Ca^2+ exchanger; [3])	incidence and duration of VT, VF, VE / ventricular arrhythmic [1]	latency of ventricular arrhythmic [1]	Occurrence time ([1]; 10 mg/Kg)	VE Duration time ([1]; 10 mg/Kg)	VE Incidence (%) ([1]; 10 mg/Kg)	VF Duration time ([1]; 10 mg/Kg)	VF Incidence (%) ([1]; 10 mg/Kg)	VT Duration time ([1]; 10 mg/Kg)	VT Incidence (%) ([1]; 10 mg/Kg)	Occurrence time ([1]; 30 mg/Kg)	VE Duration time ([1]; 30 mg/Kg)	VE Incidence (%) ([1]; 30 mg/Kg)	VF Duration time ([1]; 30 mg/Kg)	VF Incidence (%) ([1]; 30 mg/Kg)	VT Duration time ([1]; 30 mg/Kg)	VT Incidence (%) ([1]; 30 mg/Kg)	other results
O=c1c2cc(Cl)ccc2[se]n1-c1ccccn1 [IMM-004, 5-chloro-2-(2-pyridyl)-1,2-benz-isoselenazol-3(2H)-one]	44%	52%	44%	52* %	all reduced	significantly prolonged	9.3 ± 10.0 s	4.7 ± 12.9 s	100%	8.8 ± 7.4 s	22.2%	30.2 ± 17.6 s	88.9%	19.6 ± 24.1 s	0.4 ± 1.3 s	66.7%	3.3 ± 5.7 s	11.1* %	17.0 ± 12.6 s	44.4** %	Occurrence time ([1]; 100 mg/Kg): 16.4 ± 25.1 s; VE Duration time ([1]; 100 mg/Kg): 5.5 ± 10.2 s; VE Incidence (%) ([1]; 100 mg/Kg): 66.7%; VF Duration time ([1]; 100 mg/Kg): 3.9 ± 6.8 s; VF Incidence (%) ([1]; 100 mg/Kg): 33.3%; VT Duration time ([1]; 100 mg/Kg): 22.7 ± 19.4 s; VT Incidence (%) ([1]; 100 mg/Kg): 55.5* %; mutagenic effect (Ames test) (TA97; TA98; TA100; TA102): No evidence for a mutagenic effect; TA98 +S9 (TA98; 0.5 μg/dish): 70.67 ± 6.85; TA98 −S9 (TA98; 0.5 μg/dish): 56.33 ± 1.25; TA98 +S9 (TA98; 5 μg/dish): 48.33 ± 11.95; TA98 −S9 (TA98; 5 μg/dish): 29.33 ± 0.94; TA98 +S9 (TA98; 50 μg/dish): 60.67 ± 26.64; TA98 −S9 (TA98; 50 μg/dish): 19.67 ± 3.29; TA98 +S9 (TA98; 500 μg/dish): 55.33 ± 15.92; TA98 −S9 (TA98; 500 μg/dish): 24.67 ± 4.71
O=c1c2cc(F)ccc2[se]n1-c1ccccn1 [IMM-127, 5-fluoro-2-(2-pyridyl)-1,2-benz-isoselenazol-3(2H)-one]	21%	43%	21%	43* %	all reduced	significantly prolonged	15.5 ± 21.5 s	2.5 ± 6.4 s	100%	6.6 ± 7.2 s	22.2%	32.1 ± 26.1 s	66.7%	9.6 ± 9.2 s	0.2 ± 0.5 s	100%	3.2 ± 5.5 s	11.1* %	18.0 ± 11.4 s	66.7%	Occurrence time ([1]; 100 mg/Kg): 9.0 ± 19.7 s; VE Duration time ([1]; 100 mg/Kg): 2.2 ± 63 s; VE Incidence (%) ([1]; 100 mg/Kg): 88.9%; VF Duration time ([1]; 100 mg/Kg): 5.1 ± 7.8 s; VF Incidence (%) ([1]; 100 mg/Kg): 22.2%; VT Duration time ([1]; 100 mg/Kg): 31.1 ± 21.3 s; VT Incidence (%) ([1]; 100 mg/Kg): 44.4** %; mutagenic effect (Ames test) (TA97; TA98; TA100; TA102): No evidence for a mutagenic effect; TA98 +S9 (TA98; 0.5 μg/dish): 73.67 ± 4.63; TA98 −S9 (TA98; 0.5 μg/dish): 93.50 ± 10.50; TA98 +S9 (TA98; 5 μg/dish): 53.00 ± 5.72; TA98 −S9 (TA98; 5 μg/dish): 85.00 ± 5.00; TA98 +S9 (TA98; 50 μg/dish): 42.33 ± 7.41; TA98 −S9 (TA98; 50 μg/dish): 89.00 ± 10.61; TA98 +S9 (TA98; 500 μg/dish): 42.67 ± 5.31; TA98 −S9 (TA98; 500 μg/dish): 96.00 ± 4.90
